IC50 data for 31 compounds are collected here from patent US4963566A, “Benzimidazolyl-sulfinyl-tetrahydroquinolines” (Otsuka Pharmaceutical Co., Ltd., priority 1986, dated 1990).

T1 sequence (P19156 2-1034 limits assumed): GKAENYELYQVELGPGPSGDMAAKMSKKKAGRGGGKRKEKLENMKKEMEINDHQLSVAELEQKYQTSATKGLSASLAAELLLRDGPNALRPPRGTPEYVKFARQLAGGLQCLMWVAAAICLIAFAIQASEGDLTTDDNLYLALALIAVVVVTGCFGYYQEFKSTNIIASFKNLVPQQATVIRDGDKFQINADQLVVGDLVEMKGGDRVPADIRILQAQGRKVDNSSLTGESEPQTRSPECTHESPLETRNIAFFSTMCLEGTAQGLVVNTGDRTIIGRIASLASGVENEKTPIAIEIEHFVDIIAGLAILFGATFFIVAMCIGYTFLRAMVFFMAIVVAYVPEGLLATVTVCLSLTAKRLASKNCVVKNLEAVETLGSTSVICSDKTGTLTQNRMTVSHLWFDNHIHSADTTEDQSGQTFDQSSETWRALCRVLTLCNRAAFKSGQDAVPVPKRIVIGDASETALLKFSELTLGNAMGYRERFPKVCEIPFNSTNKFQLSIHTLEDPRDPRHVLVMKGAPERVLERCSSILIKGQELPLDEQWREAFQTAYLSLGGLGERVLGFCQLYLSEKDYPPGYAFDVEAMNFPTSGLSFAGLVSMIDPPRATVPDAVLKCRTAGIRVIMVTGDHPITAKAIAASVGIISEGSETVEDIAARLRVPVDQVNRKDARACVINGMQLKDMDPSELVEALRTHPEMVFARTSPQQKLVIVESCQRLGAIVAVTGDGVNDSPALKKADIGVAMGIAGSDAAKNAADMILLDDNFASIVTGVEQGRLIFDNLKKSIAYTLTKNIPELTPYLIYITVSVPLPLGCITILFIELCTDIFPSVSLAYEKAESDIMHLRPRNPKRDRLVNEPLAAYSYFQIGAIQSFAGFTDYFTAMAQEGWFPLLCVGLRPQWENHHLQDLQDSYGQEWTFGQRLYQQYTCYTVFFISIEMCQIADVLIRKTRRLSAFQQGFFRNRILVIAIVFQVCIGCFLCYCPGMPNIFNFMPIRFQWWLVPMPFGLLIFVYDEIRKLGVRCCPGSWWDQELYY
T1 sequence (P18434 whole entry partner): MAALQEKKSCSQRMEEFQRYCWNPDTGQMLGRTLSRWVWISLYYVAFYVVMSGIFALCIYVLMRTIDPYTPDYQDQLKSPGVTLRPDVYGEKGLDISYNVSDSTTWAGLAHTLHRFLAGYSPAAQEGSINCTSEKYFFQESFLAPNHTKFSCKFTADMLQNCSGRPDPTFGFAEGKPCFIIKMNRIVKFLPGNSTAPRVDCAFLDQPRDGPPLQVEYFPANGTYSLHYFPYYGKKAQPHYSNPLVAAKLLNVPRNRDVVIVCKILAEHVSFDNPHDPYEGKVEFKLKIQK

The assay concerns the target T1, H^+ +K^+ ATPase (Sus scrofa, UniProt P19156).
T1 construct: prepared from porcine stomach; from tissue; host or cells: porcine stomach
As to the kind of experiment: H+ +K+ ATPase inhibition (inorganic phosphoric acid release). Format: biochemical. Particulars: enzyme prepared from porcine stomach; 30 min with compound at room temperature, pH 6.1; then 30 min at 37° C., pH 7.4, 20 mM KCl. The procedure: H^+ +K^+ ATPase (adenosine triphosphatase) (amount of protein: 10 μg) prepared from porcine stomach was added to a Pipes-TRIS [i.e. 2-amino-2-(hydroxymethyl)-1,3-propanediol] buffer solution (pH 6.1) containing 2 mM of piperazine N,N'-bis(2-ethanesulfonic acid), and the mixture was let stand at room temperature. A test compound was dissolved in dimethyl formamide, and the mixture was added to said H^+ +K^+ ATPase buffer solution so that the final concentration should be 1% and let stand for reaction for 30 minutes at room temperature. Then a 75 mM Pipes-TRIS buffer (1 ml, pH 7.4) (containing 4 mM MgCl2, 4 mM Na2 ATP, and 20 mM KCl) and a 75 mM Pipes-TRIS buffer (1 ml, pH 7.4) (containing 4 mM MgCl2, and 4 mM Na2 ATP) were added to the solution individually to make two kinds of samples and these samples were presented for reaction for 30 minutes at 37° C. 40% Trichloroacetic acid (0.3 ml) was added to each sample to stop the reaction. The solution were subjected to centrifugal separation (3000 rpm) for 10 minutes, and the supernatant was taken off, then the formed inorganic phosphoric acid was measured by Fiske and Subbarow's method [J. Biol. Chem. vol. 66, 375 (1925)]. The value of deducting the amount of inorganic phosphoric acid taken from the Pipes-Tris buffer not containing 20 mM KCl from that taken from the Pipes-Tris buffer containing 20 mM KCl was calculated in terms of unit protein and unit hour to be defined as an activity index of enzyme. Inhibition level (%) in doses of administration was estimated by control values and activity indices of enzyme, and from the obtained inhibition level (%), IC50 (dose of administration of compounds to inhibit in 50%) was obtained.
Take `CN1CCCc2cccc(C[S+]([O-])c3nc4ccc(F)cc4[nH]3)c21` (stereo not shown) [Test compound No. 15, 1-methyl-8-(5-fluoro-2-benzimidazolyl)sulfinylmethyl-1,2,3,4-tetrahydroquinoline]: the concentration for half-maximal inhibition (IC50) turned out to be 530 nM.

`C=CCN1CCCc2cccc(C[S+]([O-])c3nc4ccc(C)cc4[nH]3)c21` (stereo not shown) [Test compound No. 33, 1-allyl-8-(5-methyl-2-benzimidazolyl)sulfinylmethyl-1,2,3,4-tetrahydroquinoline]: the IC50 turned out to be 580 nM.

As to `CCN1CCCc2cccc(C[S+]([O-])c3nc4ccccc4[nH]3)c21` (stereo not shown) [Test compound No. 36, 1-ethyl-8-(2-benzimidazolyl)sulfinylmethyl-1,2,3,4-tetrahydroquinoline], the IC50 came out at 450 nM.

With `C=CCNC1CCN(CC)c2c(C[S+]([O-])c3nc4ccc(C)cc4[nH]3)cccc21` (stereo not shown) [Test compound No. 60, 1-ethyl-8-(5-methyl-2-benzimidazolyl)sulfinylmethylmethyl-4-allylamino-1,2,3,4-tetrahydroquinoline], the IC50 turned out to be 3300 nM.

With `CCN1CCC(c2ccccc2)c2cccc(C[S+]([O-])c3nc4ccc(C)cc4[nH]3)c21` (stereo not shown) [Test compound No. 47, 1-ethyl-8-(5-methyl-2-benzimidazolyl)sulfinylmethyl-4-phenyl-1,2,3,4-tetrahydroquinoline], the IC50 was found to be 1500 nM.

As for `CCN1CCC(N(C)C(C)=O)c2cccc(C[S+]([O-])c3nc4ccccc4[nH]3)c21` (stereo not shown) [Test compound No. 59, 1-ethyl-8-(2-benzimidazolyl)sulfinylmethyl-4-(N-methyl-N-acetyl)amino-1,2,3,4-tetrahydroquinoline], the IC50 was determined as 5700 nM.

Turning to `CCN1CC=C(C)c2cccc(C[S+]([O-])c3nc4ccccc4[nH]3)c21` (stereo not shown) [Test compound No. 41, 1-ethyl-8-(2-benzimidazolyl)sulfinylmethyl-4-methyl-1,2-dihydroquinoline 1/2-hydrate], the half-inhibitory concentration (IC50) was 230 nM.

Turning to `CN1CCC(C)(O)c2cccc(C[S+]([O-])c3nc4ccccc4[nH]3)c21` (stereo not shown) [Test compound No. 45, 1,4-dimethyl-8-(2-benzimidazolyl)sulfinylmethyl-4-hydroxy-1,2,3,4-tetrahydroquinoline], the IC50 worked out at 2200 nM.

On to `CCN1CCCc2cc(C)cc(C[S+]([O-])c3nc4ccccc4[nH]3)c21` (stereo not shown) [Test compound No. 32, 1-ethyl-6-methyl-8-(2-benzimidazolyl)sulfinylmethyl-1,2,3,4-tetrahydroquinoline], for which the IC50 stood at 920 nM.

Consider `Cc1ccc2nc([S+]([O-])Cc3cccc4c3N(Cc3ccccc3)CCC4)[nH]c2c1` (stereo not shown) [Test compound No. 28, 1-benzyl-8-(5-methyl-2-benzimidazolyl)sulfinylmethyl-1,2,3,4-tetrahydroquinoline], for which the IC50 came to 650 nM.

Regarding `CCOc1cc2[nH]c([S+]([O-])Cc3cccc4c3N(CC)CCC4)nc2cc1F` (stereo not shown) [Test compound No. 7, 1-ethyl-8-(5-ethoxy-6-fluoro-2-benzimidazolyl)sulfinylmethyl-1,2,3,4-tetrahydroquinoline], the IC50 came to 1600 nM.

Regarding `CC1=C(C)c2cccc(C[S+]([O-])c3nc4ccccc4[nH]3)c2N(C)C1` (stereo not shown) [Test compound No. 42, 1,3,4-trimethyl-8-(2-benzimidazolyl)sulfinylmethyl-1,2-dihydroquinoline], the 50% inhibitory concentration (IC50) was 550 nM.

As for `C=CCOC1CCN(CC)c2c(C[S+]([O-])c3nc4ccccc4[nH]3)cccc21` (stereo not shown) [Test compound No. 51, 1-ethyl-8-(2-benzimidazolyl)sulfinylmethyl-4-allyloxy-1,2,3,4-tetrahydroquinoline], the IC50 is 2900 nM.

As for `[O-][S+](Cc1cccc2c1N(CC1CC1)CCC2)c1nc2ccccc2[nH]1` (stereo not shown) [Test compound No. 35, 1-cyclopropylmethyl-8-(2-benzimidazolyl)sulfinylmethyl-1,2,3,4-tetrahydroquinoline], the IC50 is 250 nM.

For `CCN1CC(C(=O)OC)Cc2cccc(C[S+]([O-])c3nc4ccccc4[nH]3)c21` (stereo not shown) [Test compound No. 53, 1-ethyl-8-(2-benzimidazolyl)sulfinylmethyl-3-methoxycarbonyl-1,2,3,4-tetrahydroquinoline], the IC50 was 4900 nM.

On to `CCN1CCCc2cccc(C[S+]([O-])c3nc4cc(OC)c(F)cc4[nH]3)c21` (stereo not shown) [Test compound No. 6, 1-ethyl-8-(5-fluoro-6-methoxy-2-benzimidazolyl)sulfinylmethyl-1,2,3,4-tetrahydroquinoline], for which the IC50 came out at 620 nM.

For `CCN1CCCc2cccc(C[S+]([O-])c3nc4ccc(OC)cc4[nH]3)c21` (stereo not shown) [Test compound No. 3, 1-ethyl-8-(5-methoxy-2-benzimidazolyl)sulfinylmethyl-1,2,3,4-tetrahydroquinoline], the half-inhibitory concentration (IC50) stood at 450 nM.

On to `CCN1CCC(CO)c2cccc(C[S+]([O-])c3nc4cc(OC)c(F)cc4[nH]3)c21` (stereo not shown) [Test compound No. 63, 1-ethyl-8-(5-fluoro-6-methoxy-2-benzimidazolyl)sulfinylmethyl-4-hydroxymethyl-1,2,3,4-tetrahydroquinoline], for which the IC50 was determined as 4500 nM.

For the compound `CCN1CC(C(=O)N2CCCCC2)Cc2cccc(C[S+]([O-])c3nc4ccccc4[nH]3)c21` (stereo not shown) [Test compound No. 58, 1-ethyl-8-(2-benzimidazolyl)sulfinylmethyl-3-(1-piperizinyl)carbonyl-1,2,3,4-tetrahydroquinoline], the half-maximal inhibitory concentration (IC50) turned out to be 5900 nM.

In the case of `C#CCN1CCCc2cccc(C[S+]([O-])c3nc4ccccc4[nH]3)c21` (stereo not shown) [Test compound No. 26, 1-propargyl-8-(2-benzimidazolyl)sulfinylmethyl-1,2,3,4-tetrahydroquinoline], the 50% inhibitory concentration (IC50) stood at 1600 nM.

As for `COc1cc2nc([S+]([O-])Cc3cccc4c3N(C)CCC4)[nH]c2cc1F` (stereo not shown) [Test compound No. 20, 1-methyl-8-(5-fluoro-6-methoxy-2-benzimidazolyl)sulfinylmethyl-1,2,3,4-tetrahydroquinoline], the IC50 came to 330 nM.

Turning to `CCN1CCC(=NO)c2cccc(C[S+]([O-])c3nc4ccccc4[nH]3)c21` (stereo not shown) [Test compound No. 50, 1-ethyl-8-(2-benzimidazolyl)sulfinylmethyl-4-hydroxyimino-1,2,3,4-tetrahydroquinoline], the IC50 was found to be 4700 nM.

As for `CCN1CC=C(C(F)(F)F)c2cccc(C[S+]([O-])c3nc4ccccc4[nH]3)c21` (stereo not shown) [Test compound No. 72, 1-ethyl-8-(2-benzimidazolyl)sulfinylmethyl-4-trifluoromethyl-1,2-dihydroquinoline], the 50% inhibitory concentration (IC50) was 3300 nM.

Consider `CCN1CCCc2cccc(C[S+]([O-])c3nc4cc(C)c(C)cc4[nH]3)c21` (stereo not shown) [Test compound No. 13, 1-ethyl-8-(5,6-dimethyl-2-benzimidazolyl)sulfinylmethyl-1,2,3,4-tetrahydroquinoline], for which the IC50 was determined as 170 nM.

Take `CCOC(N(C)C1CCN(CC)c2c(C[S+]([O-])c3nc4cc(F)c(OC)cc4[nH]3)cccc21)C(F)(F)F` (stereo not shown) [Test compound No. 69, 1-ethyl-8-(5-fluoro-6-methoxy-2-benzimidazolyl)sulfinylmethyl-4-[N-methyl-N-(2,2,2-trifluoro-1ethoxyethyl)]amino-1,2,3,4-tetrahydroquinoline]: the IC50 amounted to 4900 nM.

Turning to `CCN1CCCc2cccc(C[S+]([O-])c3nc4ccc(C(C)=O)cc4[nH]3)c21` (stereo not shown) [Test compound No. 9, 1-ethyl-8-(5-acetyl-2-benzimidazolyl)sulfinylmethyl-1,2,3,4-tetrahydroquinoline], the IC50 was 2200 nM.

Turning to `Cc1cccc2nc([S+]([O-])Cc3cccc4c3N(C)CCC4)[nH]c12` (stereo not shown) [Test compound No. 19, 1-methyl-8-(4-methyl-2-benzimidazolyl)sulfinylmethyl-1,2,3,4-tetrahydroquinoline], the concentration for half-maximal inhibition (IC50) is 410 nM.

In the case of `CCN1CCC(C)c2cccc(C[S+]([O-])c3nc4cc(OC)c(F)cc4[nH]3)c21` (stereo not shown) [Test compound No. 37, 1-ethyl-8-(5-fluoro-6-methoxy-2-benzimidazolyl)sulfinylmethyl-4-methyl-1,2,3,4-tetrahydroquinoline], the IC50 stood at 890 nM.

Turning to `C=CCN1CCCc2cccc(C[S+]([O-])c3nc4ccc(F)cc4[nH]3)c21` (stereo not shown) [Test compound No. 23, 1-allyl-8-(5-fluoro-2-benzimidazolyl)sulfinylmethyl-1,2,3,4-tetrahydroquinoline], the IC50 worked out at 490 nM.

`CCN1CCCc2cccc(C[S+]([O-])c3nc4ccc(C(F)(F)F)cc4[nH]3)c21` (stereo not shown) [Test compound No. 10, 1-ethyl-8-(5-trifluoromethyl-2-benzimidazolyl)sulfinylmethyl-1,2,3,4-tetrahydroquinoline]: the IC50 was found to be 370 nM.

In the case of `CCCCN1CCCc2cccc(C[S+]([O-])c3nc4ccccc4[nH]3)c21` (stereo not shown) [Test compound No. 24, 1-n-butyl-8-(2-benzimidazolyl)sulfinylmethyl-1,2,3,4-tetrahydroquinoline], the half-maximal inhibitory concentration (IC50) is 180 nM.
